The subject of one assay is SARS-CoV-2 pseudovirus. The note with it: 1 h, 5 μM.
In a further assay the target is Mpro (Severe acute respiratory syndrome coronavirus 2, UniProt P0DTD1). Briefly: MST binding to Mpro protein. The note with it: mean ± SD (n = 3). More on the design: species or system SARS-CoV-2.
The target of the next assay is RBD (Severe acute respiratory syndrome coronavirus 2, UniProt P0DTC2). Kind of assay: MST binding to RBD protein. Further details: species or system SARS-CoV-2. The note with it: mean ± SD (n = 3). The protocol:
To detect the interaction between the peptides and RBD/Mpro, the MST experiments were performed using the Monolith NT.115 instrument. RBD and Mpro proteins were labeled with the Lys labeling kit, respectively. In the assay, the final concentration of the labeled protein was 50 nM, and the peptides were gradient-diluted in 1:1 dilution and starting from 12.5 μM. After brief incubation in MST buffer, the samples were loaded into MST-standard glass capillaries. All the measurements were performed in triplicate using automatically assigned 50% MST power and 20% LED power.

The text below walks through data of publication PMC9627161 (Frontiers in Pharmacology, 2022).

Peptide text beside a SMILES is read from it.

Consider `CC[C@H](C)[C@H](N)C(=O)N[C@@H](CCC(=O)O)C(=O)N[C@@H](CCC(=O)O)C(=O)N[C@@H](CCC(N)=O)C(=O)N[C@@H](C)C(=O)N[C@@H](CCCCN)C(=O)N[C@H](C(=O)N[C@@H](Cc1ccccc1)C(=O)N[C@@H](CC(C)C)C(=O)N[C@@H](CC(=O)O)C(=O)N[C@@H](CCCCN)C(=O)N[C@@H](Cc1ccccc1)C(=O)N[C@@H](CC(N)=O)C(=O)N[C@@H](Cc1c[nH]cn1)C(=O)N[C@@H](CCC(=O)O)C(=O)N[C@@H](CCCCN)C(=O)N[C@@H](CCC(=O)O)C(=O)N[C@@H](CC(=O)O)C(=O)N[C@@H](CC(C)C)C(=O)N[C@@H](CCC(=O)O)C(=O)N[C@@H](Cc1ccc(O)cc1)C(=O)N[C@@H](CCC(N)=O)C(=O)N[C@@H](CO)C(=O)N[C@@H](CO)C(=O)N[C@@H](CC(C)C)C(=O)N[C@@H](C)C(=O)N[C@@H](CO)C(=O)N[C@@H](Cc1c[nH]c2ccccc12)C(=O)N[C@@H](CC(N)=O)C(=O)N[C@@H](Cc1ccc(O)cc1)C(=O)N[C@@H](CC(N)=O)C(=O)N[C@H](C(=O)N[C@@H](CC(N)=O)C(=O)N[C@H](C(=O)N[C@H](C(=O)O)[C@@H](C)O)[C@@H](C)CC)[C@@H](C)O)[C@@H](C)O` [Peptide-5] (H-IEEQAKTFLDKFNHEKEDLEYQSSLASWNYNTNIT-OH; N-terminus and C-terminus assumed), for which the “inhibition against pseudotyped SARS-CoV-2 virus” value in the assay on SARS-CoV-2 pseudovirus is “about 40%”. In addition, the results for the “Mpro, Kd” value at Mpro and at Mpro (listed as peptide-5) were “no binding” and “no binding affinity”, respectively.
On to `CC(=O)N[C@@H](CO)C(=O)N[C@H](C(=O)N[C@@H](CO)C(=O)N[C@@H](C)C(=O)N[C@H](C(=O)N[C@@H](CC(C)C)C(=O)N[C@@H](CCC(N)=O)C(=O)N[C@@H](CO)C(=O)NCC(=O)N[C@@H](Cc1ccccc1)C(=O)N[C@@H](CCCNC(=N)N)C(=O)N[C@@H](CCCCN)C(=O)N[C@@H](Cc1ccccc1)C(N)=O)C(C)C)[C@@H](C)O` [Peptide-21], for which, in the assay on SARS-CoV-2 pseudovirus, the “inhibition against pseudotyped SARS-CoV-2 virus” value was less than 20%. Further, the “RBD, Kd” value at RBD is “no binding”; on RBD (listed as peptide-21), “no binding affinity”.
